These compounds were tested against Amyloid-beta precursor protein (Homo sapiens) (UniProt P05067) (assay: Inhibition of Amyloid beta (25 to 35) (unknown origin) polymerization assessed as reduction in beta-amyloid fibril formation at 10 uM after 6 hrs by UV-visible spectroscopy).
Chain of Amyloid-beta precursor protein (Homo sapiens) (P05067 whole entry): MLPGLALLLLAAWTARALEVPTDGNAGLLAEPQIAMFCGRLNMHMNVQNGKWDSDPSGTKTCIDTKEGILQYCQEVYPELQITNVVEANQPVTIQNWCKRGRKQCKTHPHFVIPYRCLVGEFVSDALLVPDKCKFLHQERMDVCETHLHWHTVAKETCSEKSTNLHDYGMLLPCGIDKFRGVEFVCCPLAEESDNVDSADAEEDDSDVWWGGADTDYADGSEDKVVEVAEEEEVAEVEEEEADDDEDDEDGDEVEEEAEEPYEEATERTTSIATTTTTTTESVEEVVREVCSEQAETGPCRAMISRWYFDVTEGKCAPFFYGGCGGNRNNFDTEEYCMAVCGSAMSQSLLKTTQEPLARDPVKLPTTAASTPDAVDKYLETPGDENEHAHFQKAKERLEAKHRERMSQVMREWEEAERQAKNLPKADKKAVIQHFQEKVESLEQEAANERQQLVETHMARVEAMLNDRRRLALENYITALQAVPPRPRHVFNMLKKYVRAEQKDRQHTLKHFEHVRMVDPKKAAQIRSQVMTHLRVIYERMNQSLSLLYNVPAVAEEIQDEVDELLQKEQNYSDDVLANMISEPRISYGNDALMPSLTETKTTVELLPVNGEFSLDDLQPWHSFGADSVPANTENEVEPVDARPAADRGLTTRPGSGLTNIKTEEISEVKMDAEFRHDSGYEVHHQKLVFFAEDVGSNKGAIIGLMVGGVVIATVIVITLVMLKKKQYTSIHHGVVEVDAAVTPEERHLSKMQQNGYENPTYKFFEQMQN

In order of falling inhibition:
1. OC[C@H]1O[C@@H](Oc2ccc([C@H]3Oc4cc(/C=C/c5ccc(O)cc5)cc(O)c4[C@@H]3c3cc(O)cc(O)c3)cc2)[C@H](O)[C@@H](O)[C@@H]1O  58%
2. OC[C@H]1O[C@@H](Oc2ccc(/C=C/c3cc(O)c4c(c3)O[C@H](c3ccc(O[C@@H]5O[C@H](CO)[C@@H](O)[C@H](O)[C@H]5O)cc3)[C@H]4c3cc(O)cc(O)c3)cc2)[C@H](O)[C@@H](O)[C@@H]1O  56%
3. OC[C@H]1O[C@@H](Oc2ccc(/C=C/c3cc(O)c4c(c3)O[C@@H](c3ccc(O[C@@H]5O[C@H](CO)[C@@H](O)[C@H](O)[C@H]5O)cc3)[C@@H]4c3cc(O)cc(O)c3)cc2)[C@H](O)[C@@H](O)[C@@H]1O  56%
4. OC[C@H]1O[C@@H](Oc2ccc(/C=C/c3cc(O)c4c(c3)O[C@H](c3ccc(O)cc3)[C@H]4c3cc(O)cc(O)c3)cc2)[C@H](O)[C@@H](O)[C@@H]1O  54%

Source: ChEMBL document CHEMBL3352139, “Unambiguous Determination of the Absolute Configuration of Dimeric Stilbene Glucosides from the Rhizomes of Gnetum africanum” (J Nat Prod, 2014)
